Reference: US8536202B2, “Triazole-substituted anthranilamides as pesticides” (Bayer Cropscience AG, priority 2010, dated 2013)
Read-outs that look alike come from different tables or passages of the source.

Key:
[1] = log P determination by HPLC on reversed-phase columns (EEC Directive 79/831 Annex V.A8); format: physicochemical; conditions: pH 2.7
Summary of the method: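 log P from reversed-phase LC-MS retention at pH 2.7, 0.1% formic acid water/acetonitrile gradient 10–95% acetonitrile. Calibrated against C3–C16 unbranched alkan-2-ones, interpolating linearly between adjacent alkanones.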

[2] = system: green peach aphid (Myzus persicae); experiment: Myzus test (MYZUPE spray treatment), Use Example 4; format: in vivo; conditions: 144 h, read-out: activity in %
Summary of the method: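 Compound was formulated in acetone/dimethylformamide with alkylaryl polyglycol ether emulsifier and diluted in emulsifier-containing water. It was sprayed onto Chinese cabbage leaf discs infested with all stages of Myzus persicae. Mortality (%) was scored after 6 days, where 100% means all aphids killed.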

[3] = system: larvae of the mustard beetle (Phaedon cochleariae); experiment: Phaedon test (PHAECO spray treatment); format: in vivo; conditions: 168 h, read-out: activity in %
Summary of the method: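 Compound dissolved in acetone/dimethylformamide with alkylaryl polyglycol ether emulsifier, then diluted with emulsifier-containing water to test concentration for spray treatment of Phaedon cochleariae larvae. Activity scored after 7 days as % larvae killed (100% = all dead, 0% = none).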

[4] = system: caterpillars of the armyworm (Spodoptera frugiperda); experiment: Spodoptera frugiperda test (SPODFR spray treatment); format: in vivo; conditions: 168 h; for pest or weed control at 100 g/ha: read-out: activity in %
Summary of the method: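 Maize leaf discs sprayed with compound diluted in emulsifier-containing water (acetone/DMF solvent, alkylaryl polyglycol ether emulsifier), dried, then infested with armyworm caterpillars. Kill scored after 7 days as % mortality, 100% = all caterpillars dead, 0% = none.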

[5] = reversed-phase C18 HPLC column, HPLC on reversed-phase columns (C 18), EEC Directive 79/831 Annex V.A8, read-out: logP
[6] = HPLC on reversed-phase columns (C 18), EEC Directive 79/831 Annex V.A8, read-out: logP

Structure (SMILES) | chromatographic logP [1] | pest or weed control at 100 g/ha ([2]; 100 g/ha, after 6 days) | pest or weed control at 100 g/ha ([3]; 100 g/ha, after 7 days) | pest or weed control at 20 g/ha ([4]; 20 g/ha, after 7 days) | pest or weed control at 100 g/ha ([4]; 100 g/ha, after 7 days) | chromatographic logP [1, 5] | chromatographic logP [1, 6] | pest or weed control at 100 g/ha [2] | pest or weed control at 100 g/ha [3] | pest or weed control at 100 g/ha [4]
Cc1cc(I)cc(C(N)=O)c1NC(=O)c1cc(Cn2ncc(C(F)(C(F)(F)F)C(F)(F)F)n2)nn1-c1ncccc1Cl [Example 271] | 3.7 | 80% | 100% | 100% |  |  |  |  |  | 
CNC(=O)c1cc(Cl)cc(Cl)c1NC(=O)c1cc(Cn2ncc(C(F)(C(F)(F)F)C(F)(F)F)n2)nn1-c1ncccc1Cl [Example 273] | 3.69 | 100% | 100% |  | 100% |  |  |  |  | 
CNC(=O)c1cc(C#N)cc(C)c1NC(=O)c1cc(Cn2ncc(C(F)(F)F)n2)nn1-c1ccccc1Cl [Example 284] |  | 80% | 100% |  | 100% | 3.1 |  |  |  | 
Cc1cc(C#N)cc(C(=O)NC(C)C)c1NC(=O)c1cc(Cn2ncc(C(F)(F)F)n2)nn1-c1ccccc1Cl [Example 286] |  | 80% | 100% |  | 100% | 3.59 |  |  |  | 
CCNC(=O)c1cc(C#N)cc(C)c1NC(=O)c1cc(Cn2ncc(C(F)(F)F)n2)nn1-c1ccccc1Cl [Example 288] |  | 100% | 100% |  | 100% | 3.3 |  |  |  | 
Cc1cc(C#N)cc(C(=O)NC2CC2)c1NC(=O)c1cc(Cn2ncc(C(F)(F)F)n2)nn1-c1ccccc1Cl [Example 289] |  | 100% | 100% |  | 100% | 3.3 |  |  |  | 
CNC(=O)c1cc(Cl)cc(C)c1NC(=O)c1cc(Cn2cc(C(F)(F)F)nn2)nn1-c1ccccc1Cl [Example 291] |  | 80% | 100% |  | 100% | 3.08 |  |  |  | 
CNC(=O)c1cc(C#N)cc(C)c1NC(=O)c1cc(Cn2cc(C(F)(F)F)nn2)nn1-c1ccccc1Cl [Example 293] |  | 80% | 100% |  | 100% | 2.63 |  |  |  | 
CCNC(=O)c1cc(C#N)cc(C)c1NC(=O)c1cc(Cn2cc(C(F)(F)F)nn2)nn1-c1ccccc1Cl [Example 294] |  | 100% | 100% |  | 100% | 2.92 |  |  |  | 
CNC(=O)c1cc(C#N)cc(C)c1NC(=O)c1cc(Cn2nncc2C(F)(C(F)(F)F)C(F)(F)F)nn1-c1ccccc1Cl [Example 298] |  | 80% | 100% |  | 100% | 3.46 |  |  |  | 
CNC(=O)c1cc(Cl)cc(C)c1NC(=O)c1cc(Cn2cc(C(F)(F)C(F)(F)F)nn2)nn1-c1ncccc1Cl [Example 299] | 3.02 | 80% | 100% |  | 100% |  |  |  |  | 
Cc1cc(Cl)cc(C(=O)NC(C)C2CC2)c1NC(=O)c1cc(Cn2cc(C(F)(F)C(F)(F)F)nn2)nn1-c1ncccc1Cl (stereo not drawn) [Example 300] | 3.79 | 90% | 100% |  | 100% |  |  |  |  | 
Cc1cc(Cl)cc(C(=O)NC2CC2)c1NC(=O)c1cc(Cn2cc(C(F)(F)C(F)(F)F)nn2)nn1-c1ncccc1Cl [Example 301] | 3.26 | 90% | 100% |  | 100% |  |  |  |  | 
CCNC(=O)c1cc(Cl)cc(C)c1NC(=O)c1cc(Cn2cc(C(F)(F)C(F)(F)F)nn2)nn1-c1ncccc1Cl [Example 302] | 3.26 | 80% | 100% |  | 100% |  |  |  |  | 
Cc1cc(Cl)cc(C(=O)NC(C)C)c1NC(=O)c1cc(Cn2cc(C(F)(F)C(F)(F)F)nn2)nn1-c1ncccc1Cl [Example 303] | 3.5 | 100% | 100% |  | 100% |  |  |  |  | 
Cc1cc(Cl)cc(C(=O)NC(C)(C)C)c1NC(=O)c1cc(Cn2cc(C(F)(F)C(F)(F)F)nn2)nn1-c1ncccc1Cl [Example 304] | 3.85 | 100% | 100% |  | 100% |  |  |  |  | 
Cc1cc(Cl)cc(C(=O)NCC2CC2)c1NC(=O)c1cc(Cn2cc(C(F)(F)C(F)(F)F)nn2)nn1-c1ncccc1Cl [Example 305] | 3.55 | 100% | 100% |  | 100% |  |  |  |  | 

Structure (SMILES) | chromatographic logP [1] | pest or weed control at 100 g/ha ([2]; 100 g/ha, after 6 days) | pest or weed control at 100 g/ha ([3]; 100 g/ha, after 7 days) | pest or weed control at 20 g/ha ([4]; 20 g/ha, after 7 days) | pest or weed control at 100 g/ha ([4]; 100 g/ha, after 7 days) | chromatographic logP [1, 5] | chromatographic logP [1, 6] | pest or weed control at 100 g/ha [2] | pest or weed control at 100 g/ha [3] | pest or weed control at 100 g/ha [4]
Cc1cc(Cl)cc(C(N)=O)c1NC(=O)c1cc(Cn2cc(C(F)(F)C(F)(F)F)nn2)nn1-c1ncccc1Cl [Example 306] | 2.78 | 100% | 100% |  | 100% |  |  |  |  | 
CSC[C@H](C)NC(=O)c1cc(Cl)cc(C)c1NC(=O)c1cc(Cn2cc(C(F)(F)C(F)(F)F)nn2)nn1-c1ncccc1Cl [Example 307] | 3.66 | 100% | 100% |  | 100% |  |  |  |  | 
CNC(=O)c1cc(I)cc(C)c1NC(=O)c1cc(Cn2cc(C(F)(F)C(F)(F)F)nn2)nn1-c1ncccc1Cl [Example 308] | 3.23 | 100% | 100% |  | 100% |  |  |  |  | 
Cc1cc(I)cc(C(=O)NC(C)C2CC2)c1NC(=O)c1cc(Cn2cc(C(F)(F)C(F)(F)F)nn2)nn1-c1ncccc1Cl (stereo not drawn) [Example 309] | 4.03 | 80% | 100% |  | 100% |  |  |  |  | 
Cc1cc(I)cc(C(=O)NC(C)C)c1NC(=O)c1cc(Cn2cc(C(F)(F)C(F)(F)F)nn2)nn1-c1ncccc1Cl [Example 312] | 3.73 | 80% | 100% |  | 100% |  |  |  |  | 
Cc1cc(I)cc(C(=O)NC(C)(C)C)c1NC(=O)c1cc(Cn2cc(C(F)(F)C(F)(F)F)nn2)nn1-c1ncccc1Cl [Example 313] | 4.09 | 100% | 100% |  | 100% |  |  |  |  | 
Cc1cc(I)cc(C(=O)NCC2CC2)c1NC(=O)c1cc(Cn2cc(C(F)(F)C(F)(F)F)nn2)nn1-c1ncccc1Cl [Example 314] | 3.8 | 80% | 100% |  | 100% |  |  |  |  | 
Cc1cc(I)cc(C(N)=O)c1NC(=O)c1cc(Cn2cc(C(F)(F)C(F)(F)F)nn2)nn1-c1ncccc1Cl [Example 315] | 2.98 | 90% | 100% |  | 100% |  |  |  |  | 
CSC[C@H](C)NC(=O)c1cc(I)cc(C)c1NC(=O)c1cc(Cn2cc(C(F)(F)C(F)(F)F)nn2)nn1-c1ncccc1Cl [Example 316] | 3.91 | 100% | 100% |  | 100% |  |  |  |  | 
CNC(=O)c1cc(C#N)cc(C)c1NC(=O)c1cc(Cn2cc(C(F)(F)C(F)(F)F)nn2)nn1-c1ncccc1Cl [Example 317] | 2.68 | 100% | 100% |  | 100% |  |  |  |  | 
Cc1cc(C#N)cc(C(=O)NC2CC2)c1NC(=O)c1cc(Cn2cc(C(F)(F)C(F)(F)F)nn2)nn1-c1ncccc1Cl [Example 318] | 2.89 | 100% | 100% |  | 100% |  |  |  |  | 
CCNC(=O)c1cc(C#N)cc(C)c1NC(=O)c1cc(Cn2cc(C(F)(F)C(F)(F)F)nn2)nn1-c1ncccc1Cl [Example 319] | 2.89 | 100% | 100% |  | 100% |  |  |  |  | 
Cc1cc(C#N)cc(C(=O)NC(C)C)c1NC(=O)c1cc(Cn2cc(C(F)(F)C(F)(F)F)nn2)nn1-c1ncccc1Cl [Example 320] | 3.11 | 100% | 100% |  | 100% |  |  |  |  | 
CSC[C@H](C)NC(=O)c1cc(Cl)cc(C)c1NC(=O)c1cc(Cn2cc(C(F)(F)C(F)(F)C(F)(F)F)nn2)nn1-c1ncccc1Cl [Example 324] |  |  |  |  |  |  | 3.99 | 100% | 100% | 100%
Cc1cc(Cl)cc(C(=O)NCC2CC2)c1NC(=O)c1cc(Cn2cc(C(F)(F)C(F)(F)C(F)(F)F)nn2)nn1-c1ncccc1Cl [Example 325] |  |  |  |  |  |  | 3.9 | 100% | 100% | 100%
Cc1cc(Cl)cc(C(=O)NC2CC2)c1NC(=O)c1cc(Cn2cc(C(F)(F)C(F)(F)C(F)(F)F)nn2)nn1-c1ncccc1Cl [Example 326] |  |  |  |  |  |  | 3.57 | 100% | 100% | 100%
